Laboratory results taken from PubChem BioAssay (NCI).
“And” between values parts separate entries of the source, which are not always exact repeats. Equal entries are not always repeated.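 These data come from cells grown in 96-well plates and exposed to compound for 48 hours at five concentrations. The concentration for 50% growth inhibition is given as GI50. The concentration for full growth arrest is given as TGI.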

Tests used:
Experiment in all cases: NCI-60 cell line screen, 48 h
MCF7 breast = tested on: MCF7 breast
OVCAR-8 ovarian = tested on: OVCAR-8 ovarian
NCI-H23 lung = tested on: NCI-H23 lung
HCT-116 colon = tested on: HCT-116 colon
786-0 renal = tested on: 786-0 renal
HCC-2998 colon = tested on: HCC-2998 colon
NCI-H460 lung = tested on: NCI-H460 lung
SF-268 CNS = tested on: SF-268 CNS
SK-MEL-2 melanoma = tested on: SK-MEL-2 melanoma
MOLT-4 leukemia = tested on: MOLT-4 leukemia

COC(=O)c1c(-c2cccs2)oc(-c2cccs2)c1C(=O)OC
GI50 (MCF7 breast): 13.2 µM
TGI (MCF7 breast): > 100 µM
GI50 (OVCAR-8 ovarian): 37.6 µM
TGI (OVCAR-8 ovarian): > 100 µM
GI50 (NCI-H23 lung): 29.6 µM
TGI (NCI-H23 lung): 97.7 µM
GI50 (HCT-116 colon): 30.3 µM
TGI (HCT-116 colon): > 100 µM
GI50 (786-0 renal): 18 µM
TGI (786-0 renal): 49.8 µM
GI50 (HCC-2998 colon): 36.2 µM
TGI (HCC-2998 colon): > 82.8 µM
GI50 (NCI-H460 lung): 33.1 µM
TGI (NCI-H460 lung): > 100 µM
GI50 (SF-268 CNS): 42 µM
TGI (SF-268 CNS): > 100 µM
GI50 (SK-MEL-2 melanoma): 39.5 µM
TGI (SK-MEL-2 melanoma): > 100 µM

Cc1ccc(C)c(N2C(=O)C(=O)C(c3nc4ccccc4o3)C(=O)C2=O)c1
TGI (OVCAR-8 ovarian): > 100 µM
TGI (NCI-H23 lung): > 100 µM
TGI (HCT-116 colon): 90.5 µM
TGI (786-0 renal): > 100 µM
TGI (HCC-2998 colon): > 100 µM
TGI (NCI-H460 lung): > 100 µM
TGI (SF-268 CNS): > 100 µM
TGI (MOLT-4 leukemia): > 100 µM
TGI (SK-MEL-2 melanoma): > 100 µM

CC(=O)OC12C=C(C)C(C(C)C1)C1C(=O)N(CCN3CCCCC3)C(=O)C12 (stereo not given)
GI50 (OVCAR-8 ovarian): > 50 µM
TGI (OVCAR-8 ovarian): > 50 µM
GI50 (NCI-H23 lung): > 50 µM
TGI (NCI-H23 lung): > 50 µM
GI50 (HCT-116 colon): > 50 µM
TGI (HCT-116 colon): > 50 µM
GI50 (786-0 renal): > 50 µM
TGI (786-0 renal): > 50 µM
GI50 (HCC-2998 colon): > 50 µM
TGI (HCC-2998 colon): > 50 µM
GI50 (SF-268 CNS): > 50 µM
TGI (SF-268 CNS): > 50 µM
GI50 (MOLT-4 leukemia): > 50 µM
TGI (MOLT-4 leukemia): > 50 µM
GI50 (SK-MEL-2 melanoma): > 50 µM
TGI (SK-MEL-2 melanoma): > 50 µM

COc1ccc2nc(C(=O)c3ccccc3)c(C)cc2c1
TGI (OVCAR-8 ovarian): > 46.3 µM
TGI (NCI-H23 lung): 11.1 µM
TGI (HCT-116 colon): > 40.7 µM
TGI (786-0 renal): 38.1 µM
TGI (HCC-2998 colon): 26.3 µM
TGI (NCI-H460 lung): > 100 µM
TGI (SF-268 CNS): 56.3 µM
TGI (MOLT-4 leukemia): > 100 µM
TGI (SK-MEL-2 melanoma): > 100 µM

O=C(C(=O)n1ncc(Cl)c(Cl)c1=O)n1ncc(Cl)c(Cl)c1=O
TGI (OVCAR-8 ovarian): > 59.9 µM
TGI (NCI-H23 lung): 41.5 µM
TGI (HCT-116 colon): 29.5 µM
TGI (786-0 renal): 44.6 µM
TGI (HCC-2998 colon): 46.9 µM
TGI (NCI-H460 lung): > 100 µM
TGI (SF-268 CNS): > 100 µM
TGI (MOLT-4 leukemia): 43.7 µM
TGI (SK-MEL-2 melanoma): 74.9 µM

Cc1c(C(=O)O)n(C)c(=O)n(C)c1=O
TGI (OVCAR-8 ovarian): > 100 µM
TGI (NCI-H23 lung): > 100 µM
TGI (HCT-116 colon): > 100 µM
TGI (786-0 renal): > 100 µM
TGI (HCC-2998 colon): > 100 µM
TGI (NCI-H460 lung): > 100 µM
TGI (SF-268 CNS): > 100 µM
TGI (MOLT-4 leukemia): > 100 µM
TGI (SK-MEL-2 melanoma): > 100 µM

Cc1cccc(C(=O)O)c1C(=O)c1cccc2ccccc12
TGI (OVCAR-8 ovarian): > 100 µM
TGI (NCI-H23 lung): > 100 µM
TGI (HCT-116 colon): > 100 µM
TGI (786-0 renal): > 100 µM
TGI (HCC-2998 colon): > 100 µM
TGI (NCI-H460 lung): > 100 µM
TGI (SF-268 CNS): > 100 µM
TGI (MOLT-4 leukemia): > 100 µM
TGI (SK-MEL-2 melanoma): > 100 µM

CCOC(=O)c1cc(-c2ccc(-c3cc(C(=O)OCC)c(C#N)c(N)c3C#N)cc2)c(C#N)c(N)c1C#N
TGI (OVCAR-8 ovarian): > 100 µM
TGI (NCI-H23 lung): > 100 µM
TGI (HCT-116 colon): > 100 µM
TGI (786-0 renal): > 100 µM
TGI (HCC-2998 colon): > 100 µM
TGI (NCI-H460 lung): > 100 µM
TGI (SF-268 CNS): > 100 µM
TGI (MOLT-4 leukemia): > 100 µM
TGI (SK-MEL-2 melanoma): > 100 µM

N#CC(C(=O)CCCC(=O)Nc1ccc(Cl)cc1Cl)c1ccccc1 (stereo not given)
TGI (OVCAR-8 ovarian): > 100 µM
TGI (NCI-H23 lung): > 100 µM
TGI (HCT-116 colon): > 100 µM
TGI (786-0 renal): > 100 µM
TGI (HCC-2998 colon): > 100 µM
TGI (NCI-H460 lung): > 100 µM
TGI (SF-268 CNS): > 100 µM
TGI (MOLT-4 leukemia): > 100 µM
TGI (SK-MEL-2 melanoma): > 100 µM

CC(C)c1cc(C(C)C)c(S(=O)(=O)N=[N+]=[N-])c(C(C)C)c1
TGI (OVCAR-8 ovarian): > 100 µM
TGI (NCI-H23 lung): > 100 µM
TGI (HCT-116 colon): > 100 µM
TGI (786-0 renal): > 100 µM
TGI (HCC-2998 colon): > 100 µM
TGI (NCI-H460 lung): > 100 µM
TGI (SF-268 CNS): > 100 µM
TGI (MOLT-4 leukemia): > 100 µM

CCCCCC(=O)Nc1nc2nc[nH]c2c(=O)[nH]1
TGI (OVCAR-8 ovarian): > 100 µM
TGI (NCI-H23 lung): > 100 µM
TGI (HCT-116 colon): > 100 µM
TGI (786-0 renal): > 100 µM
TGI (HCC-2998 colon): > 100 µM
TGI (NCI-H460 lung): > 100 µM
TGI (SF-268 CNS): > 100 µM
TGI (MOLT-4 leukemia): > 100 µM
TGI (SK-MEL-2 melanoma): > 100 µM

O=C(O)/C(Cc1cn[nH]n1)=N\O
TGI (MCF7 breast): > 100 µM
TGI (OVCAR-8 ovarian): > 100 µM
TGI (NCI-H23 lung): > 100 µM
TGI (HCT-116 colon): > 100 µM
TGI (786-0 renal): > 100 µM
TGI (NCI-H460 lung): > 100 µM
TGI (SF-268 CNS): > 100 µM
TGI (MOLT-4 leukemia): > 100 µM
TGI (SK-MEL-2 melanoma): > 100 µM

COCCOc1cc(C)cc(/C=C(C)/C=C/C2=C(C)CCCC2(C)C)n1
TGI (OVCAR-8 ovarian): > 100 µM
TGI (NCI-H23 lung): > 100 µM
TGI (HCT-116 colon): > 100 µM
TGI (786-0 renal): > 100 µM
TGI (NCI-H460 lung): > 100 µM
TGI (SF-268 CNS): > 100 µM
TGI (MOLT-4 leukemia): > 100 µM
TGI (SK-MEL-2 melanoma): > 100 µM

NC1c2ccccc2Nc2ccccc21
TGI (OVCAR-8 ovarian): 17.1 µM
TGI (NCI-H23 lung): 17.5 µM
TGI (HCT-116 colon): 13.6 µM
TGI (786-0 renal): 15.9 µM
TGI (HCC-2998 colon): 18.1 µM
TGI (NCI-H460 lung): 11.1 µM
TGI (SF-268 CNS): 13.9 µM
TGI (MOLT-4 leukemia): 8.1 µM
TGI (SK-MEL-2 melanoma): 29.8 µM

CCOC(=O)/C(=C/c1cccc(Cl)c1)N(CC)CC
TGI (OVCAR-8 ovarian): > 100 µM
TGI (NCI-H23 lung): > 100 µM
TGI (HCT-116 colon): > 100 µM
TGI (786-0 renal): > 100 µM
TGI (HCC-2998 colon): > 100 µM
TGI (NCI-H460 lung): > 100 µM
TGI (SF-268 CNS): > 100 µM
TGI (MOLT-4 leukemia): > 100 µM
TGI (SK-MEL-2 melanoma): 68.5 µM

CCCCCC(O)C(O)CCC[C@H](O)[C@H]1CC[C@H]([C@H]2CC[C@H]([C@H](O)CCCCCCCCCCCCC3=C[C@H](C)OC3=O)O2)O1 (stereo not given in full)
GI50 (MCF7 breast): 3.78 µM
TGI (MCF7 breast): 31.4 µM
GI50 (OVCAR-8 ovarian): 7.24 µM
TGI (OVCAR-8 ovarian): > 100 µM
TGI (NCI-H23 lung): 23.3 µM
GI50 (HCT-116 colon): 0.0933 µM
TGI (HCT-116 colon): 38.7 µM
GI50 (786-0 renal): 11.1 µM
TGI (786-0 renal): 30.8 µM
TGI (HCC-2998 colon): 41.3 µM
GI50 (NCI-H460 lung): 1.69 µM
TGI (NCI-H460 lung): 31.7 µM
GI50 (SF-268 CNS): 12.4 µM
TGI (SF-268 CNS): 40.8 µM
GI50 (SK-MEL-2 melanoma): 15.8 µM
TGI (SK-MEL-2 melanoma): 5.16 µM and 37.4 µM

CC1OC(=O)C(O)=C1O (stereo not given)
TGI (OVCAR-8 ovarian): > 100 µM
TGI (NCI-H23 lung): > 100 µM
TGI (HCT-116 colon): > 100 µM
TGI (786-0 renal): > 100 µM
TGI (HCC-2998 colon): > 100 µM
TGI (NCI-H460 lung): > 100 µM
TGI (SF-268 CNS): > 100 µM
TGI (MOLT-4 leukemia): > 100 µM
TGI (SK-MEL-2 melanoma): > 100 µM

O=C(O)/C(Cc1ccnc2ccccc12)=N\O
TGI (MCF7 breast): > 100 µM
TGI (OVCAR-8 ovarian): > 100 µM
TGI (NCI-H23 lung): > 100 µM
TGI (HCT-116 colon): > 100 µM
TGI (786-0 renal): > 100 µM
TGI (NCI-H460 lung): > 100 µM
TGI (SF-268 CNS): > 100 µM
TGI (MOLT-4 leukemia): > 100 µM
TGI (SK-MEL-2 melanoma): > 100 µM

Clc1ccc(-c2c3ccc(=[N+]4CCCCC4)cc-3oc3cc(N4CCCCC4)ccc23)cc1
GI50 (786-0 renal): 0.103 µM
TGI (786-0 renal): 0.226 µM
GI50 (HCC-2998 colon): 0.12 µM
TGI (HCC-2998 colon): 0.248 µM
GI50 (MOLT-4 leukemia): 0.159 µM
TGI (MOLT-4 leukemia): 0.741 µM

COC1CC(O)C(OC(=O)c2ccccc2)C(C)O1 (stereo not given)
TGI (OVCAR-8 ovarian): > 100 µM
TGI (NCI-H23 lung): > 100 µM
TGI (HCT-116 colon): > 100 µM
TGI (786-0 renal): > 100 µM
TGI (HCC-2998 colon): > 100 µM
TGI (NCI-H460 lung): > 100 µM
TGI (SF-268 CNS): > 100 µM
TGI (MOLT-4 leukemia): > 100 µM

Cc1ccc(N=C[N-]c2ccc(C)cc2)cc1.Cc1ccc(N=C[N-]c2ccc(C)cc2)cc1.O=C([O-])C(F)(F)F.O=C([O-])C(F)(F)F.[OH3+].[OH3+].[Rh+2].[Rh+2]
GI50 (OVCAR-8 ovarian): 35.1 µM
TGI (OVCAR-8 ovarian): > 100 µM
GI50 (NCI-H23 lung): 25.9 µM
TGI (NCI-H23 lung): 70.3 µM
GI50 (HCT-116 colon): 16.7 µM
TGI (HCT-116 colon): 35.4 µM
GI50 (786-0 renal): 23.5 µM
TGI (786-0 renal): 58.5 µM
GI50 (HCC-2998 colon): 36.5 µM
TGI (HCC-2998 colon): > 100 µM
GI50 (NCI-H460 lung): > 100 µM
TGI (NCI-H460 lung): > 100 µM
GI50 (SF-268 CNS): 28.4 µM
TGI (SF-268 CNS): 81.6 µM
GI50 (MOLT-4 leukemia): 19 µM
TGI (MOLT-4 leukemia): 42.7 µM
GI50 (SK-MEL-2 melanoma): 32.6 µM
TGI (SK-MEL-2 melanoma): 69.8 µM
